# Reference: US9765085B2, “SHIP1 modulators and methods related thereto” (Aquinox Pharmaceuticals (Canada) Inc., priority 2013, dated 2017)
# Molecular target: T1, His-hSHIP1 enzyme (Homo sapiens, UniProt Q92835)
# T1 construct: His
# T1 sequence (Q92835 1-1189): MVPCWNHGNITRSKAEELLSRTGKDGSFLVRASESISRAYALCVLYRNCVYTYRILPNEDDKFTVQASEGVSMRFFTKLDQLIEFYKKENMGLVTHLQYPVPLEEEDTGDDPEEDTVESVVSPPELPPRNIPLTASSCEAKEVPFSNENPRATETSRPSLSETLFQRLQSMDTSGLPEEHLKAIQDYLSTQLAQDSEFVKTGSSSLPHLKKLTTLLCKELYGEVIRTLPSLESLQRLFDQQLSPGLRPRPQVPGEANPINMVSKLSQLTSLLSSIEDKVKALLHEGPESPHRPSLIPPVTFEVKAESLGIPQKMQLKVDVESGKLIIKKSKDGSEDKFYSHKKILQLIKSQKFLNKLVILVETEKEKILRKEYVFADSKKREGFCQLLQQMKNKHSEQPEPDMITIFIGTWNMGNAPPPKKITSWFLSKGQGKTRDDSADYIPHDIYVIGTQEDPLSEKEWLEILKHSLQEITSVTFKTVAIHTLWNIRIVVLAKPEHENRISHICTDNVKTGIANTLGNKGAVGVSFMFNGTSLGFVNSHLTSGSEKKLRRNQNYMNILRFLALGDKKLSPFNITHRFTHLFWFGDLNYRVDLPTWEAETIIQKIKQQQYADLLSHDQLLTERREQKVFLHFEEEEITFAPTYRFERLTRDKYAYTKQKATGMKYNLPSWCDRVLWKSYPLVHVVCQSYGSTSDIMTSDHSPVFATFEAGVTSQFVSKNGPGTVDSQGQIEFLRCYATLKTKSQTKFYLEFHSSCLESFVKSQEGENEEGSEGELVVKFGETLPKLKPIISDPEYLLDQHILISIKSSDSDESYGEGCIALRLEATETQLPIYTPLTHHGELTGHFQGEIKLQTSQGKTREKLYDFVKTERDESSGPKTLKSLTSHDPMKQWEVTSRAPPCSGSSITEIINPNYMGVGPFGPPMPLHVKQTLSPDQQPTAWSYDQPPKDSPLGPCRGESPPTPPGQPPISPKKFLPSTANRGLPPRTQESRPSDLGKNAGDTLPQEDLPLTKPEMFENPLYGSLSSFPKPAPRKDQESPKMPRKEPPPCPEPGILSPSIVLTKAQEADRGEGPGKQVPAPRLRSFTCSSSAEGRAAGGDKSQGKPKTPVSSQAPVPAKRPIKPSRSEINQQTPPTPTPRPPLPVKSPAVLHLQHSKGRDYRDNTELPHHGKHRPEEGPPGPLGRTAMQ
# Assay: His-hSHIP1 activity (phosphatase assay, IP4 substrate, Biomol Green)
# Assay type: biochemical
# Parameters: key: +++: higher than reference or reference - 15%; ++: reference - 16% to reference - 30%; +: reference - 31% or lower; −: inhibitor
# Details: ratio of initial velocities (IP4 25/IP4 250 μM final) compared with a reference SHIP1 activator; 37° C.
# Protocol: Test compounds are dissolved in 95% ethanol to form stock solutions. Before screening, the stock solutions are diluted with Phosphatase Assay Buffer (20 mM Tris-HCL, 10 mM MgCl2 pH 7.5, 0.02% Tween 20) to form working assay solutions that contain 10% ethanol. The assay is carried out on 96-well microtiter plates using a modified procedure of that reported by Ong et al., Blood 110, 1942-1949, 2007 and Yang et al., Org Lett 7, 1073-1076, 2005, both of which references are incorporated herein by reference in their entirety.
# A master mix is prepared that contains 50 μL of His-hSHIP1 enzyme (0.4-1.6 ng/μL final), 25 μL of the substrate, IP4 (25 or 250 μM final), and 50 μL of test compound in 3.3% ethanol ([…]). Control blanks are also prepared by replacing His-hSHIP1 enzyme, IP4, or test compounds with Phosphate Assay Buffer. […] Each reaction component is preincubated at 37° C. for 30 min before adding to a 96-well microtiter plate. The master mix is then incubated at 37° C. At time 0, 20, 25 and 30 min, 25 μL of the master mix is removed and transferred to a new 96-well microtiter plate, to which 100 μL of Biomol Green Reagent is added to stop the reaction. After incubating the mixture for 20 min at room temperature for color development, the absorbance is read with SpectraMax Plus 96-well plate reader at a wavelength of 650 nm. Phosphate released is plotted against time to calculate the initial velocities (i.e., slope of the graph) at each IP4 concentration. The initial velocities are baseline corrected and the ratio of initial velocities (IP425/IP4250) is calculated and used to rate the test compounds.
# The compound numbers in Table 2 correspond to the compound numbers in Table 1 above. Scoring of the compound is expressed as follows: […]
row,Scoring (Initial Velocity Ratio),Compound
1,++,"C[C@]1([C@H]2CC[C@@]3(C)[C@@H](CC[C@@]3(O)c3ccccn3)[C@@H]2CO)CC[C@H](O)C[C@@H]1CO [compound 36, (1S,3aS,4R,5S,7aS)-5-((1R,2S,4S)-4-hydroxy-2-(hydroxymethyl)-1-methylcyclohexyl)-4-(hydroxymethyl)-7a-methyl-1-(pyridin-2-yl)octahydro-1H-inden-1-ol]"
2,++,"C[C@]1([C@H]2CC[C@]3(C)c4ncccc4C[C@H]3[C@@H]2CN)CC[C@H](O)C[C@@H]1CO [compound 9, (1S,3S,4R)-4-((5aS,6R,7S,9aS)-6-(aminomethyl)-9a-methyl-5a,6,7,8,9,9a-hexahydro-5H-indeno[1,2-b]pyridin-7-yl)-3-(hydroxymethyl)-4-methylcyclohexanol]"
3,++,"C#C[C@]1(O)CC[C@H]2[C@H](CO)[C@@H]([C@@]3(C)CC[C@H](O)C[C@@H]3CO)CC[C@@]21C [compound 28, (1R,3aS,4R,5S,7aS)-1-ethynyl-5-((1R,2S,4S)-4-hydroxy-2-(hydroxymethyl)-1-methylcyclohexyl)-4-(hydroxymethyl)-7a-methyloctahydro-1H-inden-1-ol]"
4,++,"C=C1CC[C@H]2[C@H](CO)[C@@H]([C@@]3(C)CC[C@H](NC(C)=O)C[C@@H]3CO)CC[C@]12C [compound 32, N-((1S,3S,4R)-3-(hydroxymethyl)-4-((3aS,4R,5S,7aS)-4-(hydroxymethyl)-7a-methyl-1-methyleneoctahydro-1H-inden-5-yl)-4-methylcyclohexyl)acetamide]"
5,+,"C[C@]1([C@H]2CC[C@]3(C)C(c4ccco4)=CC[C@H]3[C@@H]2CO)CC[C@H](O)C[C@@H]1CO [compound 30, (1S,3S,4R)-4-((3aS,6S,7R,7aS)-3-(furan-2-yl)-7-(hydroxymethyl)-3a-methyl-3a,4,5,6,7,7a-hexahydro-1H-inden-6-yl)-3-(hydroxymethyl)-4-methylcyclohexanol]"
6,−,"C[C@]1([C@H]2CC[C@@]3(C)[C@@H](CC[C@@]3(O)c3ccccc3)[C@@H]2CO)CC[C@H](O)C[C@@H]1CO [compound 26, (1S,3aS,4R,5S,7aS)-5-((1R,2S,4S)-4-hydroxy-2-(hydroxymethyl)-1-methylcyclohexyl)-4-(hydroxymethyl)-7a-methyl-1-phenyloctahydro-1H-inden-1-ol]"
7,+,"C[C@]1([C@H]2CC[C@]3(C)C(c4cccs4)=CC[C@H]3[C@@H]2CN)CC[C@H](O)C[C@@H]1CO [compound 16, (1S,3S,4R)-4-((3aS,6S,7R,7aS)-7-(aminomethyl)-3a-methyl-3-(thiophen-2-yl)-3a,4,5,6,7,7a-hexahydro-1H-inden-6-yl)-3-(hydroxymethyl)-4-methylcyclohexanol]"
8,+,"C[C@]1([C@H]2CC[C@@]3(C)[C@@H](CC[C@@]3(O)c3cccs3)[C@@H]2CO)CC[C@H](O)C[C@@H]1CO [compound 34, (1S,3aS,4R,5S,7aS)-5-((1R,2S,4S)-4-hydroxy-2-(hydroxymethyl)-1-methylcyclohexyl)-4-(hydroxymethyl)-7a-methyl-1-(thiophen-2-yl)octahydro-1H-inden-1-ol]"
9,+,"C=C1CC[C@H]2[C@H](CO)[C@@H]([C@@]3(C)Cc4cn[nH]c4C[C@@H]3CO)CC[C@]12C [compound 21, ((3aS,4R,5S,7aS)-5-((5R,6S)-6-(hydroxymethyl)-5-methyl-4,5,6,7-tetrahydro-1H-indazol-5-yl)-7a-methyl-1-methyleneoctahydro-1H-inden-4-yl)methanol]"
10,++,"C[C@]1([C@H]2CC[C@]3(C)C(c4ccccc4)=CC[C@H]3[C@@H]2CO)CC[C@H](O)C[C@@H]1CO [compound 25, (1S,3S,4R)-3-(hydroxymethyl)-4-((3aS,6S,7R,7aS)-7-(hydroxymethyl)-3a-methyl-3-phenyl-3a,4,5,6,7,7a-hexahydro-1H-inden-6-yl)-4-methylcyclohexanol]"
11,++,"(1S,3S,4R)-4-((2R,3S,3aR,3bS,5′R,6S,7R,7aS,8aS)-7-(aminomethyl)-3,3b,5′-trimethyltetradecahydrospiro[indeno[2,1-b]furan-2,2′-pyran]-6-yl)-3-(hydroxymethyl)-4-methylcyclohexanol acetate [compound 14]"
12,++,"C[C@]1([C@H]2CC[C@@]3(C)[C@@H](CC[C@@]3(O)c3nccs3)[C@@H]2CN)CC[C@H](O)C[C@@H]1CO [compound 20, (1S,3aS,4R,5S,7aS)-4-(aminomethyl)-5-((1R,2S,4S)-4-hydroxy-2-(hydroxymethyl)-1-methylcyclohexyl)-7a-methyl-1-(thiazol-2-yl)octahydro-1H-inden-1-ol]"
13,+,"C[C@]1([C@H]2CCC3=C(C[C@@H](O)[C@@]3(C)c3ccccc3)[C@@H]2CO)CC[C@H](O)C[C@@H]1CO [compound 37, (1S,2R,4R,5S)-5-((1R,2S,4S)-4-hydroxy-2-(hydroxymethyl)-1-methylcyclohexyl)-4-(hydroxymethyl)-1-methyl-1-phenyl-2,3,4,5,6,7-hexahydro-1H-inden-2-ol]"
14,−,"C[C@]1([C@H]2CC[C@@]3(C)[C@@H](CC[C@@]3(O)c3ccccn3)[C@@H]2CN)CC[C@H](O)C[C@@H]1CO [compound 17, (1S,3aS,4R,5S,7aS)-4-(aminomethyl)-5-((1R,2S,4S)-4-hydroxy-2-(hydroxymethyl)-1-methylcyclohexyl)-7a-methyl-1-(pyridin-2-yl)octahydro-1H-inden-1-ol]"
15,++,"C=C1CC[C@H]2[C@H](CO)[C@@H]([C@@]3(C)Cc4sc(C)nc4C[C@@H]3CO)CC[C@]12C [compound 24, ((3aS,4R,5S,7aS)-5-((5S,6R)-5-(hydroxymethyl)-2,6-dimethyl-4,5,6,7-tetrahydrobenzo[d]thiazol-6-yl)-7a-methyl-1-methyleneoctahydro-1H-inden-4-yl)methanol]"
16,++,"C[C@]1([C@H]2CCC3=C(C[C@@H](O)[C@@]3(C)c3ccccc3)[C@@H]2CN)CC[C@H](O)C[C@@H]1CO [compound 19, (1S,2R,4R,5S)-4-(aminomethyl)-5-((1R,2S,4S)-4-hydroxy-2-(hydroxymethyl)-1-methylcyclohexyl)-1-methyl-1-phenyl-2,3,4,5,6,7-hexahydro-1H-inden-2-ol]"
17,++,"CN/C(=N\C#N)NC[C@H]1C2=C(CC[C@@H]1[C@@]1(C)CC[C@H](O)C[C@@H]1CO)C(C)(C)CC2 [compound 3, (E)-2-cyano-1-(((4R,5S)-5-((1R,2S,4S)-4-hydroxy-2-(hydroxymethyl)-1-methylcyclohexyl)-1,1-dimethyl-2,3,4,5,6,7-hexahydro-1H-inden-4-yl)methyl)-3-methylguanidine]"
18,+,"C[C@]1([C@H]2CC[C@]3(C)c4[nH]ncc4C[C@H]3[C@@H]2CO)CC[C@H](O)C[C@@H]1CO [compound 33, (1S,3S,4R)-3-(hydroxymethyl)-4-((4aS,5R,6S,8aS)-5-(hydroxymethyl)-8a-methyl-1,4,4a,5,6,7,8,8a-octahydroindeno[1,2-c]pyrazol-6-yl)-4-methylcyclohexanol]"
